Where two headings read alike, the source gives them in different places.
Columns and labels:
[1] = Chemical stability (acid, base, H2O2); type: physicochemical
Procedure: Samples were neutralised and diluted to a nominal concentration of 100 μg/mL in 50% aq MeOH. […] A single degradation peak appeared in all the basic samples corresponding to the urea carboxylic acid hydrolysis product.

in vivo = assay: in vivo; set-up: species or system dog; conditions: for clearance: read-out: Plasma CL; for AUC(0-t): read-out: mean AUClast; for C0: read-out: mean plasma concentration extrapolated to time zero (C0); for MTD: Beagle dogs, read-out: maximum tolerated dose (MTD); for NOAEL: male and female Beagle dogs, read-out: no observed adverse effect level (NOAEL)
Procedure: The same 2M/2F dogs were used following 2-week washout periods for each dose level in escalation order. This was a survival study and animals were not sacrificed. The following parameters were evaluated: mortality/morbidity, clinical observations, body weights, plasma drug levels, pharmacokinetics and clinical pathology (hematology, coagulation and serum chemistry).

[2] = beagle, dog, in vivo, female dogs, iv 1 mg/kg
[3] = beagle, dog, in vivo, male dogs, iv 1 mg/kg
[4] = both sexes, dog, in vivo, single po administration

[2H]C([2H])([2H])C1(C([2H])([2H])[2H])NC(=O)N(c2ccc(F)c(C(C)(F)F)c2)C1=O [Compound IE, 3-(3-(1,1-difluoroethyl)-4-fluorophenyl)-5,5-bis(methyl-d3)imidazolidine-2,4-dione]
loss of parent compound, acidic conditions ([1]; 0.01 M and 0.1 M HCl, up to 48 h): minimal loss | loss of parent compound, basic conditions ([1]; 0.01 M and 0.1 M NaOH, after 2 min): significant loss | loss of parent compound, 15% H2O2 ([1]; 15% H2O2 incubation): no significant loss | AUC (in vivo; beagle, dog, in vivo, female dogs (n = 2), IV 1 mg/kg, read-out: Plasma AUCIV 0-last): 405 µg·h/mL | clearance (in vivo; beagle, dog, in vivo, female dogs (n = 2), IV 1 mg/kg): 1.92 mL/h/kg | AUC (in vivo; beagle, dog, in vivo, female dogs (n = 2), PO 15 mg/kg, read-out: Plasma AUCoral 0-last): 7030 µg·h/mL | Cmax (in vivo; beagle, dog, in vivo, female dogs (n = 2), PO 15 mg/kg, read-out: Plasma Cmax): 42700 ng/mL | AUC(0-t) (in vivo; [2]): 377 µg·h/mL | Cmax (in vivo; beagle, dog, in vivo, female dogs, iv 1 mg/kg, read-out: mean peak plasma concentration (Cmax)): 12500 ng/mL | C0 (in vivo; [2]): 18800 ng/mL | AUC (in vivo; beagle, dog, in vivo, male dogs (n = 2), IV 1 mg/kg, read-out: Plasma AUCIV 0-last): 526 µg·h/mL | clearance (in vivo; beagle, dog, in vivo, male dogs (n = 2), IV 1 mg/kg): 1.44 mL/h/kg | AUC (in vivo; beagle, dog, in vivo, male dogs (n = 2), PO 15 mg/kg, read-out: Plasma AUCoral 0-last): 8800 µg·h/mL | Cmax (in vivo; beagle, dog, in vivo, male dogs (n = 2), PO 15 mg/kg, read-out: Plasma Cmax): 51900 ng/mL | AUC(0-t) (in vivo; [3]): 485 µg·h/mL | Cmax (in vivo; beagle, dog, in vivo, male dogs, iv 1 mg/kg, read-out: mean peak plasma concentration (Cmax)): 6880 ng/mL | C0 (in vivo; [3]): 9460 ng/mL | Tmax (in vivo; both sexes, beagle, dog, in vivo, dogs, po dose groups 15, 75, 150 mg/kg, read-out: time of peak plasma concentrations (Tmax)): 0.25 to 24 h | MTD (in vivo; both sexes, dog, in vivo, 1 mg/kg, single iv administration): > 1 mg/kg | MTD (in vivo; [4]): > 150 mg/kg | NOAEL (in vivo; both sexes, dog, in vivo, single iv administration): ≥ 1 mg/kg | NOAEL (in vivo; [4]): ≥ 150 mg/kg | Bioavailability, determined using AUClast (in vivo; both, beagle, dog, in vivo, po): greater than 100% | increase in AUClast, 150 mg/kg compared to mid-dose (in vivo; both, beagle, dog, in vivo, po, 150 mg/kg): 2-3 fold | PlasmaVSS (in vivo; female, beagle, dog, in vivo, iv, 1 mg/kg): 0.45 L/kg | half-life (in vivo; female, beagle, dog, in vivo, iv, 1 mg/kg, female dogs (n = 2), IV 1 mg/kg, read-out: Apparent t1/2 (converted)): 123 h | half-life (in vivo; female, beagle, dog, in vivo, iv, 1 mg/kg, female dogs, iv 1 mg/kg, read-out: mean elimination phase half-life (t1/2) (converted)): 152 h | BA based on AUC0-last (in vivo; female, beagle, dog, in vivo, po, 15 mg/kg): 115% | half-life (in vivo; female, beagle, dog, in vivo, po, 150 mg/kg, female dogs, po 150 mg/kg, read-out: mean t1/2 (converted)): 402 h | Apparent t1/2 (in vivo; male dogs (n = 2), PO 15 mg/kg): 237 h | PlasmaVSS (in vivo; male, beagle, dog, in vivo, iv, 1 mg/kg): 0.36 L/kg | half-life (in vivo; male, beagle, dog, in vivo, iv, 1 mg/kg, male dogs (n = 2), IV 1 mg/kg, read-out: Apparent t1/2 (converted)): 155 h | half-life (in vivo; male, beagle, dog, in vivo, iv, 1 mg/kg, male dogs, iv 1 mg/kg, read-out: mean elimination phase half-life (t1/2) (converted)): 167 h | BA based on AUC0-last (in vivo; male, beagle, dog, in vivo, po, 15 mg/kg): 111% | half-life (in vivo; male, beagle, dog, in vivo, po, 15 mg/kg, male dogs (n = 2), PO 15 mg/kg, read-out: Apparent t1/2 (converted)): 237 h | half-life (in vivo; male, beagle, dog, in vivo, po, 75 mg/kg, male dogs, po 75 mg/kg, read-out: mean t1/2 (converted)): 341 h

From US20250353819A1, “ARYL HYDANTOIN COMPOUNDS AND METHODS OF USE” (priority 2022, published 2025)
